The subject of this test is benzodiazepine receptors. In words: In vivo displacement of 3H-flunitrazepam specific binding to brain benzodiazepine receptors in mice. To be noted: test substance i.p. 15 min before 3H-FNM i.v. (4 μCi), sacrificed 20 min after 3H-FNM, forebrain. Further details: species or system mice (female, NMR). From the text:
The pharmaceutical properties of the compounds of the invention can be illustrated by determining their capability for displacing radioactive labelled flunitrazepam from benzodiazepine receptors.
The displacement activity of the compounds of the invention may be found by determining the ED50 value. The ED50 value represents the dose (mg/kg) of a test substance which causes the specific binding of flunitrazepam to benzodiazepine receptors in a living brain to be reduced to 50% of the control value.
Such an in vivo test is carried out as follows:
Twenty minutes after a dose of ^3 H-flunitrazepam (^3 H-FNM) (200 μCi/kg, i.v.) the amount of specific ^3 H-FNM binding to brain benzodiazepine receptors has reached its maximal value.
Suspensions of test substances (2 mg/ml) are prepared in 5% Duphasol-X (TM Duphar, castor oil-ethylene oxide derivative for emulsifying and solubilizing oil and other water-insoluble substances) by sonification for 10 min using a Branson B15 microtip ultrasonifier (setting 7). Groups of three mice (female, NMR, 18-22 grams) are injected with the test substance at 100 mg/kg intraperitoneally. Fifteen minutes after test substance administration the mice are challenged with 4 μCi intravenously of ^3 H-FNM (70-90 Ci/mole) in 200 μl physiological saline. Twenty minutes after ^3 H-FNM administration mice are sacrificed by decapitation, the forebrains rapidly excised (within 30 sec) and homogenized in 12 ml of icecold 25 mM KH2 PO4, pH 7.1, using an Ultra-Turrax homogenizer fitted with an N 10 shaft. Two aliquots of 1 ml are immediately filtered through Whatman GF/C glassfibre filters and washed with 2×5 ml of the above mentioned buffer. The amounts of radioactivity on the filters are determined by conventional scintillation counting. One group of untreated mice serves as control. One to three mice are injected with 25 μg/kg clonazepam i.p. 30 minutes before ^3 H-FNM to determine the amount of non-specific ^3 H-FNM binding, which should be between 8-15% of total binding. […]
The ED50 value is determined from dose response curves.
(In general: Displacement assays read how much labelled ligand stays bound in the presence of the test substance.)

SMILES strings stand for the structures.

As to `CC(=O)CC(=O)c1ncn2c1c(=O)n(C(C)C)c1ccccc12` [Compound 4, 4,5-dihydro-5-isopropyl-4-oxo-3-(1,3-dioxobutyl)-imidazo-[1,5-a]quinoxaline], the “ED50 (dose which inhibits 50% of specific 3H-flunitrazepam binding to benzodiazepine receptors in living brain)” value turned out to be 1.4 mg/kg.
Next, `CC(C)n1c(=O)c2c(C(=O)CC(=O)C3CC3)ncn2c2ccccc21` [Compound 2, 3-(3-cyclopropyl-1,3-dioxopropyl)-4,5-dihydro-5-isopropyl-4-oxo-imidazo[1,5-a]quinoxaline]: 1.5 mg/kg; `CC(C)(C)n1c(=O)c2c(C(=O)CC(=O)C3CC3)ncn2c2ccccc21` [Compound 6, 5-tert-butyl-3-(3-cyclopropyl-1,3-dioxopropyl)-4,5-dihydro-4-oxo-imidazo[1,5-a]quinoxaline]: 2.5 mg/kg.
